Source: PubChem BioAssay AID504544 (Sanford-Burnham Center for Chemical Genomics, 2011)
The source made the active and inactive calls. How the calls were made is not given here.

These compounds were tested on S. cerevisiae tim23-1 mutant growth, luminescence (assay: growth inhibition of tim23-1 mutant yeast, dose response, counter-screen for tim10-1 yeast inhibitor project, luminescence, uHTS hits (AID 504544)).

Structure (SMILES)	IC50
Nc1nc(N)c(C=Nc2ccc(Br)cc2)c(Nc2ccc(Br)cc2)n1	14 µM
CCOc1ccccc1N1C(=O)CC(Sc2n[nH]c(-c3ccccc3)n2)C1=O (configuration not stated)	4.1 µM
Cc1cccc(NC(=O)c2ccc([N+](=O)[O-])s2)n1	1.55 µM
Cc1nc(Nc2ccccc2)sc1-c1ccccc1	29 µM
CCCCCCCCCCOC(=O)Cn1c(COc2ccccc2OC)[n+](C)c2ccccc21	12 µM
COc1cc(/C=C/c2ccc3cccc(O)c3n2)c(Br)cc1O	18.2 µM
Clc1ccc(CNc2nc(CN3CCOCC3)nc3scc(-c4ccccc4)c23)cc1	11.4 µM
CCOc1ccc(-n2cc(-c3ccccc3)c3c(=O)[nH]cnc32)cc1	13.8 µM
Cc1ccc(NC2=C/C(=N\S(=O)(=O)c3cccs3)c3ccccc3C2=O)c(C)c1	11.9 µM
COC(=O)c1c(N2C(=O)CC(Sc3ccccc3C(=O)O)C2=O)sc2c1CCCC2 (configuration not stated)	3.13 µM
COc1ccc(C(=O)O/N=C(\N)Cc2ccc(Cl)c(Cl)c2)cc1OC	1.38 µM
Nc1c(C(=O)Nc2ccccc2)c2nc3ccccc3nc2n1CCCN1CCOCC1	12.5 µM
O=C(/C=C\c1ccc(-c2ccccc2)o1)c1ccccc1	3.01 µM
CCCOc1ccc(N2C(=O)CC(N3CCC(O)(c4cccc(C(F)(F)F)c4)CC3)C2=O)cc1 (configuration not stated)	7.41 µM
Cc1ccc(NC(=S)Nc2ccc(Cl)c(Cl)c2)c(OC(F)F)c1	14.4 µM
COc1ccc(/C(N)=N/OC(=O)c2ccc3c(c2)OCO3)cc1	7.52 µM
COC(=O)C(C(C)=O)C1=C/C(=N\S(=O)(=O)c2ccc(C)cc2)c2ccccc2C1=O (configuration not stated)	9.86 µM
Cc1nonc1C1CCCN1C(=O)c1cc(COc2cccc(C(F)(F)F)c2)on1 (configuration not stated)	19.2 µM
O=C(N/N=C/c1ccc[nH]1)c1cc(-c2ccc(Cl)cc2)nc2ccccc12	8.98 µM

Structure (SMILES)	IC50
CCCCCCC(=O)N(O)C1CC(=O)N(c2ccc(C)cc2)C1=O (configuration not stated)	6.88 µM
N/C(Cc1ccc(Cl)cc1)=N\OC(=O)c1ccc2ccccc2c1	0.38 µM
O=C(c1ccc2c3n(nc2c1)-c1ccccc1CO3)N1CCCCC1	9.67 µM
Cc1ccc(F)c([C@H]2C3C=CCC(c4ccccc4)C3C(=O)N2Cc2ccccc2)c1 (some centres not stated)	14.7 µM
C/C(=N\NC(=S)NCc1ccccc1)c1ccc(Cl)s1	17.5 µM
S=C(NCCCc1ccccc1)Nc1ccc(Cl)cc1	7.14 µM
N=C(N)c1ccc(/C=C/c2ccc(C(=N)N)cc2O)cc1	6.44 µM
N/C(=N\OC(=O)CCCc1ccccc1)c1ccccc1Cl	14 µM
O=C(NNC(=S)Nc1cccc(C(F)(F)F)c1)c1cccc(Cl)c1	25.5 µM
O=C(c1cc(COc2ccc(F)cc2Cl)on1)N1CCN(c2cnccn2)CC1	5.45 µM
O=C(Nc1cccc(N2C(=O)C=CC2=O)c1)c1cccs1	2.52 µM
Nc1nc(-c2ccc(Br)cc2)cs1	17.6 µM
COc1ccc(NC2CCN(C3CC(=O)N(c4ccc(F)c(Cl)c4)C3=O)CC2)cc1 (configuration not stated)	5.66 µM
CCN(CC)C1CC(=O)N(c2cccc(Cl)c2)C1=O (configuration not stated)	2.46 µM
N/C(=N\OC(=O)c1ccc(Cl)cc1)c1ccc(Cl)cc1	> 100 µM (inactive)
Cc1ccccc1/C=C/C(=O)c1ccc([N+](=O)[O-])o1	1.5 µM
CC(C)C(=O)N1CCN(c2ccccc2NC(=O)c2ccc([N+](=O)[O-])o2)CC1	8.89 µM
COc1ccc2cc3cc(C(=O)NCCN4CCc5ccccc5C4)oc3nc2c1	3.34 µM
Cc1ccccc1OCC(=O)Nc1ccc(S(=O)(=O)N2CCCC2)cc1	7.95 µM

Structure (SMILES)	IC50
CC(C)(C)OC(=O)N[C@@H](Cc1ccccc1)c1nnc(S(=O)(=O)Cc2cccc(F)c2)o1	2.28 µM
Cc1ccc(/C(N)=N/OC(=O)C(C)c2ccc([N+](=O)[O-])cc2)cc1 (configuration not stated)	41.9 µM
Cc1ccc(F)c([C@H]2[C@@H]3C=CCC[C@@]3(C)C(=O)N2Cc2ccccc2)c1	18.4 µM
CCOC(=O)c1cc(-c2cccs2)nc2c1c(C)nn2-c1ccccn1	17.3 µM
CN(CCCC(=O)O)c1ccc(N=Nc2ccc([N+](=O)[O-])cc2)cc1	11.6 µM
CCCn1c(CC)nc([N+](=O)[O-])c1S(=O)(=O)c1ccccc1	6.66 µM
Cc1ccc(/C(N)=N/OC(=O)c2ccc3c(c2)OCO3)cc1	15.5 µM
CC(=O)N1CCN(c2cc(N3CCc4ccccc4C3)c(F)cc2[N+](=O)[O-])CC1	34.7 µM
CC(C)CN(CC(C)C)C(=S)Nc1ccc(Cl)cc1	55.2 µM
Fc1ccccc1CNC(=S)Nc1cccc(C(F)(F)F)c1	11.8 µM
CN=C(Nc1cc(Cl)ccc1Cl)SC1CC(=O)N(c2ccc(C(=O)OC)cc2)C1=O (configuration not stated)	15.4 µM
O=C(OCn1ncc(Br)c(Br)c1=O)c1ccccc1Cl	2.07 µM
N/C(=N\OC(=O)c1ccc(F)cc1)c1ccc(Br)cc1	3.14 µM
CCCOc1ccccc1NC(=O)/C=C/C(N)=O	2.34 µM
CCOC(=O)/C=C/C(=O)OCC(=O)Nc1ccc([N+](=O)[O-])cc1	7.49 µM
CCCCNC(=S)N=Nc1c(O)[nH]c2ccccc12	4.92 µM
COc1ccc(/C=C/C(=O)c2ccccc2)cc1Cn1nnc2ccccc21	7.94 µM
NC(=NCCCCCCN=C(N)/N=C(\N)Nc1ccc(Cl)cc1)/N=C(\N)Nc1ccc(Cl)cc1	> 100 µM (inactive)
COc1ccccc1N1C(=O)CC(Sc2n[nH]c(-c3cccc(C)c3)n2)C1=O (configuration not stated)	7.77 µM
